Experimental data published in US8431593B2, “Heteroaryl amide derivatives” (H. Lundbeck A/S, priority 2006, dated 2013).
Where two headings read alike, the source gives them in different places.

Target: T1, P2X7 receptor (Homo sapiens, UniProt Q99572)
T1 construct: host or cells: SH-SY5Y
T1 sequence (Q99572 1-595): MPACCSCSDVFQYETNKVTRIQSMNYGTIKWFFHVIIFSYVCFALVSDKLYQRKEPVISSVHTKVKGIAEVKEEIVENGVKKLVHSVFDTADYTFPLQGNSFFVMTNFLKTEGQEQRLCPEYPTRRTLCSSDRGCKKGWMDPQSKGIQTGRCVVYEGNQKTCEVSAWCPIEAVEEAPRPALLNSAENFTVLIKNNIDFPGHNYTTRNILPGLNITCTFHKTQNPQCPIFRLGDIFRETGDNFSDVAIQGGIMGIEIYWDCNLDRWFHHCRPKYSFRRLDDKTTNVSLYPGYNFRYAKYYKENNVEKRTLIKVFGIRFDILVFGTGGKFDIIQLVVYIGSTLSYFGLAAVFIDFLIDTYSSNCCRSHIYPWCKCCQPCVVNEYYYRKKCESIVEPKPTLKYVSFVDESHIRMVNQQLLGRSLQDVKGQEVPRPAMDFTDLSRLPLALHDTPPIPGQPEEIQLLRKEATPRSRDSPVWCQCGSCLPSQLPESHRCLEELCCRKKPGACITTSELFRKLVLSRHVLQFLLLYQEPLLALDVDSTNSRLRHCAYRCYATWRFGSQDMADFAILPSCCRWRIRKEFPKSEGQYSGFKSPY
Test: P2X7 calcium mobilization assay, high throughput, antagonist activity (Example 4A)
Format: cell-based
How it was run: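 Antagonism was measured as calcium mobilization on FLIPR^TETRA after a 1 h room-temperature compound preincubation of dye-loaded cells. Baseline from no-agonist wells was subtracted from each well's maximum RFU.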

[1] = SH-SY5Y cells, 50% decrease in fluorescence response to 80 μM BzATP, read-out: IC50

`C[C@H](O)CNC(=O)c1cn2c(C(=O)NCC34CC5CC(CC(C5)C3)C4)cccc2n1` [Compound 82, 5-N-(adamantan-1-ylmethyl)--[(2S)-2-hydroxy-propyl]imidazo[1,2-a]pyridine-2,5-dicarboxamide] gave an IC50 [1] of under 2000 nM.

`CCC(O)CNC(=O)c1cn2c(C(=O)NCC34CC5CC(CC(C5)C3)C4)cccc2n1` (stereo not shown) [Compound 83, 5-N-(adamantan-1-ylmethyl)--(2-hydroxy-butyl)imidazo[1,2-a]pyridine-2,5-dicarboxamide] gave an IC50 [1] of under 2000 nM.

With `CC(O)CCNC(=O)c1cn2c(C(=O)NCC34CC5CC(CC(C5)C3)C4)cccc2n1` (stereo not shown) [Compound 84, 5-N-(adamantan-1-ylmethyl)--(3-hydroxy-butyl)imidazo[1,2-a]pyridine-2,5-dicarboxamide] the IC50 [1] was under 2000 nM.

For `CC(C)[C@H](CO)NC(=O)c1cn2c(C(=O)NCC34CC5CC(CC(C5)C3)C4)cccc2n1` [Compound 85, 5-N-(adamantan-1-ylmethyl)--[(1R)-1-(hydroxymethyl)-2-methyl-propyl]imidazo[1,2-a]pyridine-2,5-dicarboxamide], the IC50 [1] was under 2000 nM.

For `CC(O)CNC(=O)c1cn2c(C(=O)NCC34CC5CC(CC(C5)C3)C4)cccc2n1` (stereo not shown) [Compound 86, 5-N-(adamantan-1-ylmethyl)--(2-hydroxy-propyl)imidazo[1,2-a]pyridine-2,5-dicarboxamide], the IC50 [1] was under 2000 nM.

`COCC1CCN(C(=O)c2cn3c(C(=O)NCC45CC6CC(CC(C6)C4)C5)cccc3n2)CC1` [Compound 87, N-(adamantan-1-ylmethyl)-2-{[4-(methoxy-methyl)piperidin-1-yl]carbonyl}imi-dazo[1,2-a]pyridine-5-carboxamide] showed an IC50 of under 2000 nM.

`COCCC1CCN(C(=O)c2cn3c(C(=O)NCC45CC6CC(CC(C6)C4)C5)cccc3n2)CC1` [Compound 88, N-(adamantan-1-ylmethyl)-2-{[4-(2-methoxyethyl)piperidin-1-yl]carbonyl}imidazo[1,2-a]pyridine-5-carboxamide] was tested, and the IC50 was under 2000 nM.

Work on `CN1CCN(C(=O)c2cn3c(C(=O)NCC45CC6CC(CC(C6)C4)C5)cccc3n2)CC1` [Compound 89, N-(adamantan-1-ylmethyl)-2-[(4-methylpiperazin-1-yl)carbonyl]imidazo[1,2-a]pyridine-5-carboxamide] yielded an IC50 [1] of under 2000 nM.

`CN(C(=O)c1cn2c(C(=O)NCC34CC5CC(CC(C5)C3)C4)cccc2n1)C1CCOC1` (stereo not shown) [Compound 90, 5-N-(adamantan-1-ylmethyl)--methyl-- (tetrahydrofuran-3-yl)imidazo[1,2-a]pyridine-2,5-dicarboxamide] gave an IC50 [1] of under 2000 nM.

Work on `CN(C)CCN(C)C(=O)c1cn2c(C(=O)NCC34CC5CC(CC(C5)C3)C4)cccc2n1` [Compound 91, 5-N-(adamantan-1-ylmethyl)--[2-(dimethylamino)ethyl]-- methylimidazo[1,2-a]pyridine-2,5-dicarboxamide] yielded an IC50 [1] of under 2000 nM.

Work on `CN1CCC(N(C)C(=O)c2cn3c(C(=O)NCC45CC6CC(CC(C6)C4)C5)cccc3n2)C1` (stereo not shown) [Compound 92, 5-N-(adamantan-1-ylmethyl)--methyl--(1-methylpyrrolidin-3-yl)imidazo[1,2-a]pyridine-2,5-dicarboxamide] yielded an IC50 [1] of under 2000 nM.

In the case of `CN(C)C1CCN(C(=O)c2cn3c(C(=O)NCC45CC6CC(CC(C6)C4)C5)cccc3n2)C1` (stereo not shown) [Compound 93, N-(adamantan-1-ylmethyl)-2-{[3-(dimethyl-amino)pyrrolidin-1-yl]carbonyl}imidazo[1,2-a]pyridine-5-carboxamide], the IC50 [1] is reported as under 2000 nM.

Compound `COCCN1CCN(C(=O)c2cn3c(C(=O)NCC45CC6CC(CC(C6)C4)C5)cccc3n2)CC1` [Compound 94, N-(adamantan-1-ylmethyl)-2-{[4-(2-methoxyethyl)piperazin-1-yl]carbonyl}imidazo[1,2-a]pyridine-5-carboxamide] has an IC50 [1] of under 2000 nM.

Work on `COC1CCN(C(=O)c2cn3c(C(=O)NCC45CC6CC(CC(C6)C4)C5)cccc3n2)CC1` [Compound 95, N-(adamantan-1-ylmethyl)-2-[(4-methoxypiperidin-1-yl)carbonyl]imidazo[1,2-a]pyridine-5-carboxamide] yielded an IC50 [1] of under 2000 nM.

`CS(=O)(=O)C1CCN(C(=O)c2cn3c(C(=O)NCC45CC6CC(CC(C6)C4)C5)cccc3n2)CC1` [Compound 96, N-(adamantan-1-ylmethyl)-2-{[4-(methyl-sulfonyl)piperidin-1-yl]carbonyl}imidazo[1,2-a]pyridine-5-carboxamide] was tested, and the IC50 [1] was under 2000 nM.

With `CS(=O)(=O)N1CCN(C(=O)c2cn3c(C(=O)NCC45CC6CC(CC(C6)C4)C5)cccc3n2)CC1` [Compound 97, N-(adamantan-1-ylmethyl)-2-{[4-(methyl-sulfonyl)piperazin-1-yl]carbonyl}imidazo[1,2-a]pyridine-5-carboxamide] the IC50 [1] was under 2000 nM.

`CN(CCNS(C)(=O)=O)C(=O)c1cn2c(C(=O)NCC34CC5CC(CC(C5)C3)C4)cccc2n1` [Compound 98, 5-N-(adamantan-1-ylmethyl)--methyl--{2-[(methyl-sulfonyl)amino]eth-yl)imidazo[1,2-a]pyridine-2,5-dicarboxamide] gave an IC50 [1] of under 2000 nM.

In the case of `O=C1CN(C(=O)c2cn3c(C(=O)NCC45CC6CC(CC(C6)C4)C5)cccc3n2)CCN1` [Compound 99, N-(adamantan-1-ylmethyl)-2-[(3-oxopiperazin-1-yl)carbonyl]imidazo[1,2-a]pyridine-5-carboxamide], the IC50 [1] is reported as under 2000 nM.

Work on `COC1CCCN(C(=O)c2cn3c(C(=O)NCC45CC6CC(CC(C6)C4)C5)cccc3n2)C1` (stereo not shown) [Compound 100, N-(adamantan-1-ylmethyl)-2-[(3-methoxypiperidin-1-yl)carbonyl]imidazo[1,2-a]pyridine-5-carboxamide] yielded an IC50 [1] of under 2000 nM.

`O=C(NCC12CC3CC(CC(C3)C1)C2)c1cccc2nc(C(=O)N3CCC(N4CCOCC4)CC3)cn12` [Compound 101, N-(adamantan-1-ylmethyl)-2-[(4-morpholin-4-ylpiperidin-1-yl)carbonyl]imidazo[1,2-a]pyridine-5-carboxamide] gave an IC50 [1] of under 2000 nM.

In the case of `NC(=O)C1CCN(C(=O)c2cn3c(C(=O)NCC45CC6CC(CC(C6)C4)C5)cccc3n2)CC1` [Compound 102, N-(adamantan-1-ylmethyl)-2-[(4-carbamoylpiperidin-1-yl)carbonyl]imidazo[1,2-a]pyridine-5-carboxamide], the IC50 [1] is reported as under 2000 nM.

For `NC(=O)C1CCCN(C(=O)c2cn3c(C(=O)NCC45CC6CC(CC(C6)C4)C5)cccc3n2)C1` (stereo not shown) [Compound 103, N-(adamantan-1-ylmethyl)-2-[(3-carbamoylpiperidin-1-yl)carbonyl]imidazo[1,2-a]pyridine-5-carboxamide], the IC50 [1] was under 2000 nM.

`O=C(NCC12CC3CC(CC(C3)C1)C2)c1cccc2nc(C(=O)N3CCCC(O)C3)cn12` (stereo not shown) [Compound 105, N-(adamantan-1-ylmethyl)-2-[(3-hydroxypiperidin-1-yl)carbonyl]imidazo[1,2-a]pyridine-5-carboxamide] showed an IC50 [1] of under 2000 nM.

`O=C(NCC12CC3CC(CC(C3)C1)C2)c1cccc2nc(C(=O)N3CCC(O)CC3)cn12` [Compound 106, N-(adamantan-1-ylmethyl)-2-[(4-hydroxypiperidin-1-yl)carbonyl]imidazo[1,2-a]pyridine-5-carboxamide] gave an IC50 [1] of under 2000 nM.

Compound `O=C(NCC12CC3CC(CC(C3)C1)C2)c1cccc2nc(C(=O)N3CC(O)C3)cn12` [Compound 107, N-(adamantan-1-ylmethyl)-2-[(3-hydroxyazetidin-1-yl)carbonyl]imidazo[1,2-a]pyridine-5-carboxamide] has an IC50 [1] of under 2000 nM.

With `CC1(O)CCN(C(=O)c2cn3c(C(=O)NCC45CC6CC(CC(C6)C4)C5)cccc3n2)CC1` [Compound 108, N-(adamantan-1-ylmethyl)-2-[(4-hydroxy-4-methylpiperidin-1-yl)carbonyl]imidazo[1,2-a]pyridine-5-carboxamide] the IC50 [1] was under 2000 nM.

Compound `CC1(O)CCN(C(=O)c2cn3c(C(=O)NCC45CC6CC(CC(C6)C4)C5)cccc3n2)C1` (stereo not shown) [Compound 112, N-(adamantan-1-ylmethyl)-2-[(3-hydroxy-3-methylpyrrolidin-1-yl)carbonyl]imidazo[1,2-a]pyridine-5-carboxamide] has an IC50 [1] of under 2000 nM.

`C[C@@H]1CN(C(=O)Cc2cn3c(C(=O)NCC45CC6CC(CC(C6)C4)C5)cccc3n2)CCN1` [Compound 114, N-(adamantan-1-ylmethyl)-2-{2-[(3R)-3-methylpiperazin-1-yl]-2-oxoethyl}imidazo[1,2-a]pyridine-5-carboxamide] gave an IC50 [1] of under 2000 nM.

For `N[C@@H]1CCN(CCc2cn3c(C(=O)NCC45CC6CC(CC(C6)C4)C5)cccc3n2)C1` [Compound 115, 2-[2-((R)-3-amino-pyrrolidin-1-yl)-ethyl]-imidazo[1,2-a]pyridine-5-carboxylic acid (adamantan-1-ylmethyl)-amide], the IC50 [1] was under 2000 nM.

For `O=C(NCC12CC3CC(CC(C3)C1)C2)c1cccc2nc(CCN3CCC(O)CC3)cn12` [Compound 116, 2-[2-(4-hydroxy-piperidin-1-yl)-ethyl]-imidazo[1,2-a]pyridine-5-carboxylic acid (adamantan-1-ylmethyl)-amide], the IC50 [1] was under 2000 nM.

With `NC1CCN(CCc2cn3c(C(=O)NCC45CC6CC(CC(C6)C4)C5)cccc3n2)CC1` [Compound 117, 2-[2-(4-amino-piperidin-1-yl)-ethyl]-imidazo[1,2-a]pyridine-5-carboxylic acid (adamantan-1-ylmethyl)-amide] the IC50 [1] was under 2000 nM.
